Source: ChEMBL document CHEMBL1201862, “PubChem BioAssay data set” (2004)
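Tested at 5 concentrations; 48 h exposure; 96-well plates; endpoints linearly interpolated, else capped at highest concentration. The concentration for 50% growth inhibition is given as GI50.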 Active and inactive are the calls of the source. Cut-off read from the data, not from the text of the source: active = GI50 up to about 1.1 µM and inactive = higher.

Experiments:
Experiment in all cases: DTP human tumour cell line panel, 48 h
UACC-62 = tested on: UACC-62
SN12C = tested on: SN12C
NCI-H460 = tested on: NCI-H460
TK-10 = tested on: TK-10
A498 = tested on: A498
SF-295 = tested on: SF-295
LOX IMVI = tested on: LOX IMVI
MOLT-4 = tested on: MOLT-4
Malme-3M = tested on: Malme-3M
SF-539 = tested on: SF-539
SNB-19 = tested on: SNB-19
NCI-H23 = tested on: NCI-H23
OVCAR-3 = tested on: OVCAR-3
SK-MEL-2 = tested on: SK-MEL-2
ACHN = tested on: ACHN
SF-268 = tested on: SF-268
RXF 393 = tested on: RXF 393
OVCAR-4 = tested on: OVCAR-4
A549 = tested on: A549
M14 = tested on: M14

Measured: GI50

COc1ccc(/C(Cl)=C(\CN(C)C)c2ccc(OC)c(OC)c2)cc1OC
inactive: UACC-62 > 100 µM | SN12C > 100 µM | NCI-H460 > 100 µM | TK-10 > 100 µM | A498 > 100 µM | SF-295 > 100 µM | LOX IMVI > 100 µM | MOLT-4 > 100 µM | Malme-3M > 100 µM | SF-539 > 100 µM | SNB-19 > 100 µM | NCI-H23 > 100 µM | OVCAR-3 > 100 µM | SK-MEL-2 55.6 µM | ACHN > 100 µM | SF-268 > 100 µM

O=C(Nc1cccc([N+](=O)[O-])c1)C(=O)C(C(=O)c1ccccc1F)C1OC(=O)C2C=CC=CC21 (stereo not drawn)
inactive: UACC-62 28 µM | SN12C 30.1 µM | NCI-H460 40.9 µM | TK-10 > 100 µM | A498 96.6 µM | RXF 393 18.5 µM | SF-295 43.9 µM | LOX IMVI 21.1 µM | OVCAR-4 47.2 µM | MOLT-4 32 µM | A549 37.5 µM | SF-539 24 µM | M14 38 µM | SNB-19 29.9 µM | NCI-H23 25.1 µM | SK-MEL-2 30.3 µM | ACHN 49.4 µM | SF-268 19.7 µM

S=c1sc2c(s1)SC(c1ccccc1)CS2 (stereo not drawn)
inactive: UACC-62 > 100 µM | SN12C > 100 µM | NCI-H460 > 100 µM | A498 > 100 µM | RXF 393 25.1 µM | SF-295 25.8 µM | LOX IMVI > 86.3 µM | OVCAR-4 20.4 µM | MOLT-4 > 100 µM | Malme-3M > 100 µM | A549 > 100 µM | SF-539 > 100 µM | SNB-19 > 100 µM | NCI-H23 > 100 µM | OVCAR-3 > 66.2 µM | SK-MEL-2 > 100 µM | SF-268 > 100 µM

CCOC(=O)C(O)(NC(=O)c1ccccc1F)C(F)(F)F (stereo not drawn)
inactive: UACC-62 > 100 µM | SN12C > 100 µM | TK-10 > 100 µM | RXF 393 > 100 µM | SF-295 > 100 µM | LOX IMVI > 100 µM | OVCAR-4 > 100 µM | MOLT-4 > 100 µM | Malme-3M > 100 µM | A549 > 100 µM | SF-539 > 100 µM | M14 > 100 µM | SNB-19 > 100 µM | NCI-H23 > 100 µM | OVCAR-3 > 100 µM | SK-MEL-2 > 100 µM | ACHN > 100 µM | SF-268 > 100 µM

COc1cc([N+](=O)[O-])ccc1N1C(=O)C2c3[nH]c4ccccc4c3C3CCC(C(C)(C)C)CC3C2C1=O (stereo not drawn)
inactive: UACC-62 19.6 µM | SN12C 64.4 µM | NCI-H460 18.9 µM | TK-10 > 100 µM | A498 > 100 µM | LOX IMVI 18.5 µM | OVCAR-4 17.2 µM | MOLT-4 > 100 µM | Malme-3M > 100 µM | A549 > 100 µM | SF-539 62.8 µM | M14 13.6 µM | NCI-H23 31 µM | OVCAR-3 > 100 µM | SK-MEL-2 94.8 µM | ACHN > 100 µM

CC(c1ccccc1)N1CCN(C(C)c2ccccc2)CC1 (stereo not drawn)
inactive: UACC-62 40.8 µM | SN12C > 100 µM | NCI-H460 65.2 µM | TK-10 > 100 µM | A498 77.4 µM | RXF 393 79.6 µM | SF-295 > 100 µM | LOX IMVI > 100 µM | OVCAR-4 > 100 µM | MOLT-4 39.5 µM | Malme-3M 56.6 µM | A549 > 100 µM | M14 22.8 µM | SNB-19 > 100 µM | NCI-H23 > 100 µM | OVCAR-3 35.4 µM | SK-MEL-2 35.2 µM | ACHN > 100 µM | SF-268 > 100 µM

CN(C)CCNc1nc2c(c(=O)n(C)c(=O)n2C)n1C
inactive: UACC-62 > 100 µM | SN12C > 100 µM | NCI-H460 > 100 µM | TK-10 > 100 µM | A498 > 100 µM | RXF 393 > 100 µM | SF-295 > 100 µM | LOX IMVI > 100 µM | OVCAR-4 > 100 µM | MOLT-4 > 100 µM | Malme-3M > 100 µM | A549 > 100 µM | SF-539 > 100 µM | M14 > 100 µM | SNB-19 > 100 µM | NCI-H23 > 100 µM | OVCAR-3 > 100 µM | ACHN > 100 µM | SF-268 > 100 µM

CC1(C)OCC(CO)(CO)CO1
inactive: SN12C > 100 µM | NCI-H460 > 100 µM | TK-10 > 100 µM | A498 14 µM | RXF 393 > 100 µM | SF-295 > 100 µM | LOX IMVI > 100 µM | OVCAR-4 > 100 µM | MOLT-4 > 100 µM | A549 > 100 µM | M14 > 100 µM | SNB-19 > 100 µM | NCI-H23 > 100 µM | OVCAR-3 > 100 µM | ACHN > 100 µM | SF-268 > 100 µM

CCOC(=O)c1nc2cc(C(F)(F)F)ccc2nc1Nc1ccc(C(=O)NC(C(=O)OCC)C(=O)OCC)cc1
inactive: UACC-62 11.5 µM | SN12C 18.9 µM | NCI-H460 73.6 µM | TK-10 24.7 µM | A498 25.5 µM | RXF 393 13.6 µM | SF-295 15.5 µM | LOX IMVI 54.2 µM | OVCAR-4 10.6 µM | MOLT-4 > 100 µM | Malme-3M 20 µM | SNB-19 18.2 µM | NCI-H23 35.5 µM | OVCAR-3 45.4 µM | SK-MEL-2 52.5 µM | ACHN 23.3 µM | SF-268 19.5 µM

COc1cc(CCN)c(OC)c(OC)c1
inactive: UACC-62 > 100 µM | SN12C > 100 µM | NCI-H460 > 100 µM | TK-10 > 100 µM | A498 > 100 µM | RXF 393 > 100 µM | SF-295 > 100 µM | LOX IMVI > 100 µM | OVCAR-4 > 100 µM | MOLT-4 > 100 µM | Malme-3M > 100 µM | A549 > 100 µM | M14 58.7 µM | SNB-19 > 100 µM | NCI-H23 > 100 µM | OVCAR-3 > 100 µM | SK-MEL-2 > 100 µM | ACHN > 100 µM | SF-268 > 100 µM

Oc1nc2ccccc2c2oc3ccccc3c12
inactive: UACC-62 > 100 µM | SN12C > 100 µM | NCI-H460 > 100 µM | TK-10 > 100 µM | A498 > 100 µM | RXF 393 82 µM | SF-295 > 100 µM | OVCAR-4 > 100 µM | MOLT-4 > 100 µM | Malme-3M > 100 µM | A549 > 100 µM | SF-539 > 100 µM | M14 > 100 µM | SNB-19 > 100 µM | NCI-H23 > 100 µM | OVCAR-3 > 100 µM | ACHN > 100 µM | SF-268 > 100 µM
